Source: patent US6518302B1, “Remedies” (Takara Shuzo Co., Ltd., priority 1999, dated 2003)
Where two headings read alike, the source gives them in different places.

What was measured:
[1] = Conversion into DGE in culture medium (thin-layer chromatography); type: in vitro ADME; conditions: 10 mM in RPMI 1640 medium with 10% calf serum, 37° C., 4 hours
Experimental: The compound (7) or the compound (9) synthesized in Example 1 was dissolved at a final concentration of 10 mM in RPMI 1640 medium supplemented with 10% calf serum. These samples were allowed to stand at 37° C. for 4 hours. […] each of the samples was then subjected to thin-layer chromatography using chloroform:methanol=5:1 as a developing solvent. Detection was carried out using orcinol-sulfuric acid.
For each sample, a spot with Rf value of 0.5, the same value as that for the compound of general formula IV in which Z is CH2OH and Y is H (L-glycero-1,5-epoxy-1αβ,6-dihydroxy-cis-hex-3-en-2-one, hereinafter referred to as DGE), was detected.

[2] = test system: Human promyelocytic leukemia HL-60 cells; assay: Antiproliferation activity against HL-60 cells (MTT method); type: cell-based; conditions: 48 hour incubation
Experimental: Human promyelocytic leukemia HL-60 cells (ATCC CCL-240) were cultured at 37° C. in RPMI 1640 medium (Gibco) containing 10% of fetal calf serum (JRH Bioscience) which had been treated at 56° C. for 30 minutes, and suspended in the same medium at a concentration of 5000 cells/90 μl. Each 90 μl portion of the suspension was distributed into each well of a 96-well plate (Falcon). To the suspension in each well was added 10 μl of one the following samples, and incubated at 37° C. in the presence of 5% CO2. The samples were 2-, 4-, 8-, 16-, 32-, 64- or 128-dilutions of filter-sterilized 200 mM aqueous solution of the compound (2) obtained in Example 1, 50 mM aqueous solution of the compound (7), 50 mM aqueous solution of the compound (9), 100 mM aqueous solution of the compound (11), 100 mM aqueous solution of the compound (14), 20 mM aqueous solution of the compound (17), 12.5 mM aqueous solution of the compound (19) or 12.5 mM aqueous solution of the compound (21) with sterile water, as well as water. After 48 hour from the initiation of the incubation, the numbers of viable cells calculated based on the absorbance measured according to the MTT method as described in “Apoptosis Jikken Protocol” (Syuzyun-sha, Seiichi Tanuma, ed., pp. 156 (1994)) were compared each other.

[3] = test system: HL-60 (ATCC CCL-240) cells; assay: Apoptosis morphology in HL-60 cells under optical microscope; type: cell-based, Human; conditions: 24 hours
Experimental: (§1) HL-60 (ATCC CCL-240) cells were cultured at 37° C. in RPMI 1640 medium (Bio Whittaker) containing 10% fetal calf serum (JRH) which had been treated at 56° C. for 30 minutes and suspended in RPMI 1640 medium at a concentration of 2.5×10^5 cells/4.5 ml. […] each of aqueous solutions of the compound (2) at a concentration of 10, 50 or 100 mM, the compound (7) at a concentration of 500, 1000 or 1500 μM, the compound (9) at a concentration of 750, 1500 or 3000 μM, the compound (11) at a concentration of 750, 1500 or 3000 μM, or the compound (14) at a concentration of 750, 1500 or 3000 μM was added to 4.5 ml of the suspension. The mixtures were incubated at 37° C. for 24 hours in the presence of 5% CO2. The cultured cells were examined under an optical microscope.

[4] = test system: HL-60 (ATCC CCL-240) cells; assay: Measurement of apoptotic cells using FACScan; type: cell-based, Human; conditions: HL-60 cells, 24 hours
Experimental: as §1, with “CO2. Measurement of apoptotic cells using FACScan as described in Saibo Kogaku, Bessatsu (Cell Technology, Suppl.) Jikken Protocol Series: Apoptosis Jikken Protocol (Experimental Protocol Series: Experimental Protocols for Apoptosis) (Shujun-sha) pp. 129-130 and analysis of DNA fragmentation as described in Bio Manual UP Series: […] Apoptosis Jikken-ho (Bio Manual UP Series: Current Experimental Methods for Apoptosis) (Yodo-sha) pp. 61-63 were carried out using cells” for “CO2. The”, “cultured for 24 or 48 hours in the same manner as that described above.” for “cultured cells were examined under an optical microscope.”

[5] = test system: HL-60 (ATCC CCL-240) cells; assay: Analysis of DNA fragmentation; type: cell-based, Human; conditions: HL-60 cells
Experimental: as §1, with “CO2. Measurement of apoptotic cells using FACScan as described in Saibo Kogaku, Bessatsu (Cell Technology, Suppl.) Jikken Protocol Series: Apoptosis Jikken Protocol (Experimental Protocol Series: Experimental Protocols for Apoptosis) (Shujun-sha) pp. 129-130 and analysis of DNA fragmentation as described in Bio Manual UP Series: […] Apoptosis Jikken-ho (Bio Manual UP Series: Current Experimental Methods for Apoptosis) (Yodo-sha) pp. 61-63 were carried out using cells” for “CO2. The”, “cultured for 24 or 48 hours in the same manner as that described above.” for “cultured cells were examined under an optical microscope.”

[6] = test system: HL-60 (ATCC CCL-240) cells; assay: Viability of HL-60 cells by Trypan Blue staining; type: cell-based; conditions: Homo sapiens, read-out: Viability50, concentration that results in a viability of 50%
Experimental: HL-60 (ATCC CCL-240) cells were cultured at 37° C. in RPMI 1640 medium (Bio Whittaker) containing 10% fetal calf serum (JRH) which had been treated at 56° C. for 30 minutes and suspended in RPMI 1640 medium at a concentration of 2.5×10^5 cells/4.5 ml.
[…] each of aqueous solutions of the compound (2) at a concentration of 10, 50 or 100 mM, the compound (7) at a concentration of 500, 1000 or 1500 μM, the compound (9) at a concentration of 750, 1500 or 3000 μM, the compound (11) at a concentration of 750, 1500 or 3000 μM, or the compound (14) at a concentration of 750, 1500 or 3000 μM was added to 4.5 ml of the suspension. The mixtures were incubated at 37° C. for 24 hours in the presence of 5% CO2.
A portion of the cells cultured for 24 or 48 hours as described in Example 4 was stained with 0.4% Trypan Blue and examined under an optical microscope. The number of viable cells which were not stained and the number of dead cells which were stained blue were counted. The concentration of each of the compounds (2), (7), (9), (11) and (14) that results in a viability of 50% (Viability50 mM) was determined.

O=C[C@H](O)[C@H]1OC[C@@H](O)[C@@H]1O [Compound (2), 3,6-anhydro-D-galactose, reference compound]
conversion into DGE (spot with Rf value of 0.5, the same value as DGE) [1]: conversion into DGE was also observed | antiproliferation activity against HL-60 cells [2]: exhibited antiproliferation activities | IC50 ([2]; Homo sapiens, HL-60 cells, read-out: IC50, concentration at which 50% of the proliferation is inhibited): 0.86 mM | final concentration at which condensation of nuclei, shrinking of cells and formation of apoptotic bodies were observed [3]: ≥ 5 mM | final concentration at which apoptotic cells were observed [4]: ≥ 5 mM | final concentration at which DNA fragmentation was observed ([5]; 24 hours): ≥ 5 mM | final concentration at which DNA fragmentation was observed ([5]; 48 hours): ≥ 1 mM | IC50 ([6]; 24 hours): 18.1 mM | IC50 ([6]; 48 hours): 3.4 mM
